Paper PMC3000800 (Bioorganic & medicinal chemistry letters, 2010)

Experiments:
[1] = target: native α7 nAChR in rat brain membranes (Rattus norvegicus, UniProt Q05941); experiment: biochemical; type: binding; conditions: for inhibition at 10 µM: read-out: Percent binding/inhibition, α7 receptor (selectivity study)
[2] = target: T1, human 5HT3 receptor (Homo sapiens, UniProt P46098); experiment: biochemical; conditions: read-out: Percent binding/inhibition, 5HT3 receptor
T1 sequence (P46098 24-478): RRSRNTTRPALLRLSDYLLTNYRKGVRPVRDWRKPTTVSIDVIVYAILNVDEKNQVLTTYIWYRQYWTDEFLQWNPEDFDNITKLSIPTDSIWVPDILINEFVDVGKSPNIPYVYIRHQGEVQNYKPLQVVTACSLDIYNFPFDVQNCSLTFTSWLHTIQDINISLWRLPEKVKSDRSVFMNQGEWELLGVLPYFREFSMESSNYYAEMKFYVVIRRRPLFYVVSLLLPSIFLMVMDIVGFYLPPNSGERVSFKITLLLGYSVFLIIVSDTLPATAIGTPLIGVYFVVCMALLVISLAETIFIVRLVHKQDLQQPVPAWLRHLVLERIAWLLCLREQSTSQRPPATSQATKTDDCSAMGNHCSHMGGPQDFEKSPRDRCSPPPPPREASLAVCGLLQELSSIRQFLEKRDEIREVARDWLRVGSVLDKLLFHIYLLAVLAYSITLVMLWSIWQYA

[3] = target: neuronal α4β2 nAChRs (Rattus norvegicus, UniProt P09483+P12390); experiment: biochemical; conditions: read-out: Percent binding/inhibition, neuronal α4β2
[4] = target: muscle-type nAChR (Homo sapiens, UniProt P02708+P07510+Q07001); type: binding
[5] = target: human α7 nAChR (Homo sapiens, UniProt P36544); experiment: cell-based
[6] = test system: DFP-induced seizure-like behaviors; conditions: mouse, in vivo
[7] = male, C57Bl/6, mouse, in vivo, ip, 10 mg/kg

Chain of native α7 nAChR in rat brain membranes (Q05941 23-502): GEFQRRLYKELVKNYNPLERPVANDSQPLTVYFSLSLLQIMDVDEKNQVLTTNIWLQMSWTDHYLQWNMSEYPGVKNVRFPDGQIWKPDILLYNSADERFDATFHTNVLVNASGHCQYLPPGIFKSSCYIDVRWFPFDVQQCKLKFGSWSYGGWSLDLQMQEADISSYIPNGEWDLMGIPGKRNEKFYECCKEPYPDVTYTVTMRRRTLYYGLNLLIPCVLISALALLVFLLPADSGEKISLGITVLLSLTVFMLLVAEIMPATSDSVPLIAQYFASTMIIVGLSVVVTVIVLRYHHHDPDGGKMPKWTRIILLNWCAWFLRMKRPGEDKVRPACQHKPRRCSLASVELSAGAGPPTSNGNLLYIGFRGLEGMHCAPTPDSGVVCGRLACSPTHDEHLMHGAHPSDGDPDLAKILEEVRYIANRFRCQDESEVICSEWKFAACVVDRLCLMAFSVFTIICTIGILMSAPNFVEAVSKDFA
Chain of muscle-type nAChR (P02708 21-457): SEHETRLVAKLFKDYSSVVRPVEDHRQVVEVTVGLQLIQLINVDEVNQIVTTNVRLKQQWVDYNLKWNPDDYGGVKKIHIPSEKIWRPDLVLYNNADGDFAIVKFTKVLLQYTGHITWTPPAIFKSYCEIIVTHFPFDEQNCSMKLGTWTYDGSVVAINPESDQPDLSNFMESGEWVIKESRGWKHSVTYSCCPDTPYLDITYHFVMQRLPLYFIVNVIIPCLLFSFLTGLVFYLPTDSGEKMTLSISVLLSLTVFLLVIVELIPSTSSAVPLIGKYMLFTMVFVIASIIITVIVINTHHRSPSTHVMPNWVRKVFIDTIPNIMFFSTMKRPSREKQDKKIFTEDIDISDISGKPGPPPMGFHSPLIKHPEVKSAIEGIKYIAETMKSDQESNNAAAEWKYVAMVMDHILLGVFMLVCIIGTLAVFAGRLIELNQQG
Chain of muscle-type nAChR (P07510 23-517): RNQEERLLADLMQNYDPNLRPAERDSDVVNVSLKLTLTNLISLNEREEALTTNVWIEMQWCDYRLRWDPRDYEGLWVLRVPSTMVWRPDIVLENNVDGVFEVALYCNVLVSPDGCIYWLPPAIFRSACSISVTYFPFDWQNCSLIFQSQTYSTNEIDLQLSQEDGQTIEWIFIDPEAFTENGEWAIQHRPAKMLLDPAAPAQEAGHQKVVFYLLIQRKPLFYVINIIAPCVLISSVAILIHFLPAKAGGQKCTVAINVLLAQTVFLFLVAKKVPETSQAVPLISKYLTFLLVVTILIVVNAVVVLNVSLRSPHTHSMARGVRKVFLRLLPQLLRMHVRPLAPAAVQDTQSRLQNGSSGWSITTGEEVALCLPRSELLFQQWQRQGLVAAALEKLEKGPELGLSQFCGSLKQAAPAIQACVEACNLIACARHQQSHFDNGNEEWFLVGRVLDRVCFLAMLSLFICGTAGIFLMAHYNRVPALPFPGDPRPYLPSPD
Chain of muscle-type nAChR (P11230 24-501, further chain): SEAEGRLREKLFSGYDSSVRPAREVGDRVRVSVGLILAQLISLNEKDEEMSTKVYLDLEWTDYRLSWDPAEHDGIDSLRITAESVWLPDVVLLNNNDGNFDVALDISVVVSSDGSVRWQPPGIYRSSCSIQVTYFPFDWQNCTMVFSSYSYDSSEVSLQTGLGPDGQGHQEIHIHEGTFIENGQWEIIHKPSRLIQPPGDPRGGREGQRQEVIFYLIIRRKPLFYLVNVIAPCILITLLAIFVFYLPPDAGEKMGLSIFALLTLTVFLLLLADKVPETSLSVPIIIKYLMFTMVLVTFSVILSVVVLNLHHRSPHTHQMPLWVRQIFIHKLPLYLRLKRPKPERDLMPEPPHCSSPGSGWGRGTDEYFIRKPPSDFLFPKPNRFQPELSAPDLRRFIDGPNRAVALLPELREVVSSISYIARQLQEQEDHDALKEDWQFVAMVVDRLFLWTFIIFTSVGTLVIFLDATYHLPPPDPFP
Chain of muscle-type nAChR (Q07001 22-517): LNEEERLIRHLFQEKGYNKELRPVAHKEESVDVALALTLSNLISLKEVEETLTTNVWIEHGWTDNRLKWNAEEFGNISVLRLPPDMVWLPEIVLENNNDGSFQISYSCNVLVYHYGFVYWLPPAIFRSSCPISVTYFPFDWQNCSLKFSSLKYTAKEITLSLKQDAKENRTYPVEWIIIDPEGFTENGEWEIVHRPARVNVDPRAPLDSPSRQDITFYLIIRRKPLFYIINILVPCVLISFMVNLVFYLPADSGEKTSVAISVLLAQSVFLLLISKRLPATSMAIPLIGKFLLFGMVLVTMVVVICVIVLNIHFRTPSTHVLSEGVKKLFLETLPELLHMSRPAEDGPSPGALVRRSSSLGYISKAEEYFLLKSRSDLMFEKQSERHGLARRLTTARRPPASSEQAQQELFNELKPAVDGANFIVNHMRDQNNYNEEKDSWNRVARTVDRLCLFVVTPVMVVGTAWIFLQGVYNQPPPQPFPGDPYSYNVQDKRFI
Chain of neuronal α4β2 nAChRs (P09483 31-630): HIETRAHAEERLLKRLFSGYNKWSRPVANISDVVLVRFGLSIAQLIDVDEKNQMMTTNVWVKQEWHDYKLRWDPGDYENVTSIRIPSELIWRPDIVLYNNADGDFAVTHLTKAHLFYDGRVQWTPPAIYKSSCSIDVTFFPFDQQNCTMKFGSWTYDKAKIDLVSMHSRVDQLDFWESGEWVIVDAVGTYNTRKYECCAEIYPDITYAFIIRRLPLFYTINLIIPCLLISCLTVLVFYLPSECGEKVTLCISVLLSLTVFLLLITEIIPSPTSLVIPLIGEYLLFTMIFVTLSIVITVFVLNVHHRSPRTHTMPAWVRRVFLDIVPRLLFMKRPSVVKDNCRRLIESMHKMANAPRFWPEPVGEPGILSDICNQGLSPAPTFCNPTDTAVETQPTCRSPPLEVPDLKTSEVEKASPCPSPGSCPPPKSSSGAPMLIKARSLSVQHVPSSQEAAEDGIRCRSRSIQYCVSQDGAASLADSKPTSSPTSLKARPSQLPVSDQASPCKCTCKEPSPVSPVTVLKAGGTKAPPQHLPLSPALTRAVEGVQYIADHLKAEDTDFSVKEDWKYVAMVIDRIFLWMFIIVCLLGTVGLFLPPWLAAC
Chain of neuronal α4β2 nAChRs (P12390 25-500): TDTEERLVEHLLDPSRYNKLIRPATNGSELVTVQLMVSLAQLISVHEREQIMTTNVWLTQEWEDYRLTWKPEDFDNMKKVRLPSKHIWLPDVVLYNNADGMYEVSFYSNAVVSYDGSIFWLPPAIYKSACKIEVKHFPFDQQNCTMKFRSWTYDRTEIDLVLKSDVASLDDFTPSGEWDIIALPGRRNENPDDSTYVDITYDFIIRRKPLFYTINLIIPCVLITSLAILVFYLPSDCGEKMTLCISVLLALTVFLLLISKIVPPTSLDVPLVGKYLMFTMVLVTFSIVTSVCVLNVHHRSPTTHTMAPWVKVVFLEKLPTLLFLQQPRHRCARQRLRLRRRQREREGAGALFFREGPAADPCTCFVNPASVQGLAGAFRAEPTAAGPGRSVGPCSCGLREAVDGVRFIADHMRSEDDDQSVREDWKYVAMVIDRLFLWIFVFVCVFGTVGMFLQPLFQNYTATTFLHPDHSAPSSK
Chain of human α7 nAChR (P36544 23-502): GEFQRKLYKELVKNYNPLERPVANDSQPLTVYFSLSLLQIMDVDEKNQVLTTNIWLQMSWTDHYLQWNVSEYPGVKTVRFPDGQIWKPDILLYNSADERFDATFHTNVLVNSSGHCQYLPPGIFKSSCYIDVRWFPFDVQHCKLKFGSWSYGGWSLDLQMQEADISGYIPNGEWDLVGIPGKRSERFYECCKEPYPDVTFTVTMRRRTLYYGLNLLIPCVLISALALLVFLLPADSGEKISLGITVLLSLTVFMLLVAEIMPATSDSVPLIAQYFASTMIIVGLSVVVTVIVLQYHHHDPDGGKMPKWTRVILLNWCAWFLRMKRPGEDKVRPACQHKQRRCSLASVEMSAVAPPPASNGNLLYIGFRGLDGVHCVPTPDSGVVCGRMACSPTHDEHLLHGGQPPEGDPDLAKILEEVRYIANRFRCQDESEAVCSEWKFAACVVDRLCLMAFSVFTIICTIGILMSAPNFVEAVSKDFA

Row | SMILES | binding affinity to the α7 nAChR (in words) [1] | inhibition at 10 µM [2] [%] | inhibition at 10 µM [3] [%] | binding to the muscle-type nAChR [4] | inhibition at 10 µM [1] [%] | IC50 [5] [µM] | Normalized % neuroprotection [6] [%] | Normalized % seizure [6] [%] | Seizure score (mean ± SD) [6] | concentration in brain [7] [µM] | IC50 [1] [µM]
1 | CCCc1c(C(=O)NC2CCN(C)CC2)cnn1-c1ccccc1 [8h] | completely abolished the binding affinity |  |  |  |  |  |  |  |  |  | 
2 | CCCc1c(C(=O)NC2CCNCC2)cnn1-c1ccccc1 [8i] | completely abolished the binding affinity |  |  |  |  |  |  |  |  |  | 
3 | O=C(NCC1CCN(Cc2ccccc2)CC1)c1cn(Cc2cccc(Cl)c2)nn1 [compound 7] |  | 8.4 | 18.8 | no detectable binding | 82.5 |  |  |  |  |  | 
4 | CN(CC1CCN(Cc2ccccc2)CC1)C(=O)c1cn(Cc2ccccc2Cl)nn1 [compound 7i] |  |  |  |  |  | 3.8 | 93.4 | 6.6 | 0.6 ± 1.3 |  | 
5 | CCCc1c(C(=O)NC2CCN(Cc3ccccc3)CC2)cnn1-c1ccccc1 [compound 8] |  | 14.3 | 1.3 | no detectable binding | 82.5 | 18.9 | 91.2 | 8.8 | 0.8 ± 1.3 | 9 | 2.9
